Source: patent publication US20240228555A9, “ANTIMICROBIAL PEPTIDOMIMETICS” (Basilea Pharmaceutica International AG, Allschwil, priority 2020, published 2024)
Where a SMILES comes first, the peptide text is derived from it.

Key:
[1] = tested on: Escherichia coli ATCC 25922; conditions: ATCC 25922
Description: (§1) Lyophilized peptides were weighed on a Microbalance (Mettler MT5) and dissolved in sterile water to a final concentration of 1 mg/mL. Stock solutions were kept at +4° C., light protected.
(§2) Colonies of the microorganisms were diluted in saline (0.85%, NaCl) and adjusted using a McFarland reader (bioMérieux SA, Marcy-l'Etoile, France) to 0.5 McFarland standard. Subsequently, the bacterial suspension was diluted in Mueller-Hinton II (MHII, cation adjusted) broth to give approximately 5×10^5 colony forming units (CFU/mL).
(§3) 10^6 colony forming units (CFU)/mL. Aliquots (90 μl) of inoculate were added to 10 μl of water+P-80 (Polysorbate 80, 0.002% final concentration) containing the peptide in serial two-fold dilutions at 10 fold final concentration. The following microorganisms were used to determine antibiotic selectivity of the peptides: Escherichia coli ATCC 25922, Escherichia coli MCR-1 Af 45 and Klebsiella pneumoniae SSI3010.

[2] = tested on: Klebsiella pneumoniae SSI3010; conditions: SSI3010
Description: as §1, §2, §3

[3] = tested on: Escherichia coli MCR-1 Af 45; conditions: Mueller-Hinton broth II, no visible growth after 18-20 hours at 35° C.
Description: as §1, §2, §3

[4] = tested on: human red blood cells (hRBC); assay type: cell-based; conditions: red cells of human, 1 h, 0.2 g/L
Description: as §1
The peptides were tested for their hemolytic activity against human red blood cells (hRBC). Fresh hRBC were washed three times with phosphate buffered saline (PBS) and centrifuged for 5 min at 3000×g. Compounds (200 μg/mL) were incubated with 20% hRBC (v/v) for 1 h at 37° C. and shaking at 300 rpm. A value of 0% and 100% cell lyses, respectively, was determined by incubation of hRBC in the presence of PBS and 2.5% Triton X-100 in H2O, respectively. The samples were centrifuged, the supernatants were 8-fold diluted in PBS buffer and the optical densities (OD) were measured at 540 nm. The 100% lyses value (OD540H2O) gave an OD540 of approximately 0.5-1.0.
Percent hemolysis was calculated as follows: (OD540peptide/OD540H2O)×100%.

SMILES | Escherichia coli ATCC 25922 MIC [1] [µg/mL] | Klebsiella pneumoniae SSI3010 MIC [2] [µg/mL] | Escherichia coli MCR-1 Af 45 MIC [3] [µg/mL] | Hemolysis at 0.2 g/L [4] [%]
CC[C@H](C)[C@H](NC(=O)[C@@H](NC(=O)[C@@H]1C[C@@H](O)CN1C(=O)[C@@H](N)C(C)C)[C@@H](C)CC)C(=O)N[C@@H](Cc1ccc(O)cc1)C(=O)N[C@@H]1C(=O)N[C@@H](CC(N)=O)C(=O)N[C@@H](CCCNC(=N)N)C(=O)N[C@@H](CCN)C(=O)N[C@@H](CO)C(=O)N[C@H](CCN)C(=O)N[C@@H]([C@@H](C)CC)C(=O)N[C@H](C(=O)N[C@@H](CCN)C(=O)N[C@@H](CCN)C(=O)N[C@@H](Cc2ccc(O)cc2)C(=O)O)CSSC1(C)C [Example 84, Val-Hyp-Ile-Ile-Tyr-Pen-Asn-Arg-Dab-Ser-^DDab-Ile-Cys-Dab-Dab-Tyr] (HELM PEPTIDE1{V.[Hyp].I.I.Y.[Pen].N.R.[Dab].S.[NCC[C@@H](N[*:1])C(=O)[*:2]].I.C.[Dab].[Dab].Y}$PEPTIDE1,PEPTIDE1,6:R3-13:R3$$$V2.0) | 0.25 | 0.5 | 0.25 | <1
CC[C@H](C)[C@H](NC(=O)[C@@H](NC(=O)[C@@H]1C[C@@H](O)CN1C(=O)[C@@H](N)C(C)C)[C@@H](C)CC)C(=O)N[C@@H](Cc1ccc(O)cc1)C(=O)N[C@@H]1C(=O)N[C@@H](CC(N)=O)C(=O)N[C@@H](CCCNC(=N)N)C(=O)N[C@@H](CCN)C(=O)N[C@@H]([C@@H](C)O)C(=O)N[C@H](CCN)C(=O)N[C@@H](CCCCN)C(=O)N[C@H](C(=O)N[C@@H](CCN)C(=O)N[C@@H](CCCN)C(=O)N[C@@H](Cc2ccc(O)cc2)C(=O)O)CSSC1(C)C [Example 85, Val-Hyp-Ile-Ile-Tyr-Pen-Asn-Arg-Dab-Thr-^DDab-Lys-Cys-Dab-Orn-Tyr] (HELM PEPTIDE1{V.[Hyp].I.I.Y.[Pen].N.R.[Dab].T.[NCC[C@@H](N[*:1])C(=O)[*:2]].K.C.[Dab].[Orn].Y}$PEPTIDE1,PEPTIDE1,6:R3-13:R3$$$V2.0) | 0.125 | 0.25 | 0.0625 | <1
CC[C@H](C)[C@H](NC(=O)[C@@H](NC(=O)[C@@H]1C[C@@H](O)CN1C(=O)[C@@H](N)C(C)C)[C@@H](C)CC)C(=O)N[C@@H](Cc1ccc(O)cc1)C(=O)N[C@@H]1C(=O)N[C@@H](CC(N)=O)C(=O)N[C@@H](CCCNC(=N)N)C(=O)N[C@@H](CCN)C(=O)N[C@@H](CO)C(=O)N[C@H](CCN)C(=O)N[C@@H](CCCCN)C(=O)N[C@H](C(=O)N[C@@H](CCN)C(=O)N[C@@H](CCCN)C(=O)N[C@@H](Cc2ccc(O)cc2)C(=O)O)CSSC1(C)C [Example 86, Val-Hyp-Ile-Ile-Tyr-Pen-Asn-Arg-Dab-Ser-^DDab-Lys-Cys-Dab-Orn-Tyr] (HELM PEPTIDE1{V.[Hyp].I.I.Y.[Pen].N.R.[Dab].S.[NCC[C@@H](N[*:1])C(=O)[*:2]].K.C.[Dab].[Orn].Y}$PEPTIDE1,PEPTIDE1,6:R3-13:R3$$$V2.0) | 0.125 | 0.25 | 0.0625 | <1
CC[C@H](C)[C@H](NC(=O)[C@@H](NC(=O)[C@@H]1C[C@@H](O)CN1C(=O)[C@@H](N)C(C)C)[C@@H](C)CC)C(=O)N[C@@H](Cc1ccc(O)cc1)C(=O)N[C@@H]1C(=O)N[C@@H](CC(N)=O)C(=O)N[C@@H](CCCNC(=N)N)C(=O)N[C@@H](CCN)C(=O)N[C@@H]([C@@H](C)O)C(=O)N[C@H](CCN)C(=O)N[C@@H]([C@@H](C)CC)C(=O)N[C@H](C(=O)N[C@@H](CCN)C(=O)N[C@@H](CCCNC(=N)N)C(=O)N[C@@H](Cc2ccc(O)cc2)C(=O)O)CSSC1(C)C [Example 87, Val-Hyp-Ile-Ile-Tyr-Pen-Asn-Arg-Dab-Thr-^DDab-Ile-Cys-Dab-Arg-Tyr] (HELM PEPTIDE1{V.[Hyp].I.I.Y.[Pen].N.R.[Dab].T.[NCC[C@@H](N[*:1])C(=O)[*:2]].I.C.[Dab].R.Y}$PEPTIDE1,PEPTIDE1,6:R3-13:R3$$$V2.0) | 0.125 | 0.25 | 0.125 | <1
CC[C@H](C)[C@@H]1NC(=O)[C@@H](NC(=O)[C@H](Cc2ccc(O)cc2)NC(=O)[C@@H](NC(=O)[C@@H](NC(=O)[C@@H]2C[C@@H](O)CN2C(=O)[C@@H](N)C(C)C)[C@@H](C)CC)[C@@H](C)O)C(C)(C)SSC[C@@H](C(=O)N[C@@H](CCN)C(=O)N[C@@H](CCCN)C(=O)N[C@@H](Cc2ccc(O)cc2)C(=O)O)NC(=O)[C@H](CCCCN)NC(=O)[C@@H](CCN)NC(=O)[C@H]([C@@H](C)O)NC(=O)[C@H](CCN)NC(=O)[C@H](CCCNC(=N)N)NC1=O [Example 88, Val-Hyp-Ile-Thr-Tyr-Pen-Ile-Arg-Dab-Thr-^DDab-Lys-Cys-Dab-Orn-Tyr] (HELM PEPTIDE1{V.[Hyp].I.T.Y.[Pen].I.R.[Dab].T.[NCC[C@@H](N[*:1])C(=O)[*:2]].K.C.[Dab].[Orn].Y}$PEPTIDE1,PEPTIDE1,6:R3-13:R3$$$V2.0) | 0.125 | 0.25 | 0.0625 | <1
CC[C@H](C)[C@H](NC(=O)[C@@H]1C[C@@H](O)CN1C(=O)[C@@H](N)C(C)C)C(=O)N[C@@H](CCN)C(=O)N[C@@H](Cc1ccc(O)cc1)C(=O)N[C@@H]1C(=O)N[C@@H](CC(N)=O)C(=O)N[C@@H](CCCNC(=N)N)C(=O)N[C@@H](CCN)C(=O)N[C@@H]([C@@H](C)O)C(=O)N[C@H](CCN)C(=O)N[C@@H](CCCCN)C(=O)N[C@H](C(=O)N[C@@H](CCN)C(=O)N[C@@H](CCCN)C(=O)N[C@@H](Cc2ccc(O)cc2)C(=O)O)CSSC1(C)C [Example 89, Val-Hyp-Ile-Dab-Tyr-Pen-Asn-Arg-Dab-Thr-^DDab-Lys-Cys-Dab-Orn-Tyr] (HELM PEPTIDE1{V.[Hyp].I.[Dab].Y.[Pen].N.R.[Dab].T.[NCC[C@@H](N[*:1])C(=O)[*:2]].K.C.[Dab].[Orn].Y}$PEPTIDE1,PEPTIDE1,6:R3-13:R3$$$V2.0) | 0.0625 | 0.25 | 0.0625 | <1
CC[C@H](C)[C@H](NC(=O)[C@@H](NC(=O)[C@@H]1C[C@@H](N)CN1C(=O)[C@@H](N)C(C)C)[C@@H](C)CC)C(=O)N[C@@H](Cc1ccc(O)cc1)C(=O)N[C@@H]1C(=O)N[C@@H](CC(N)=O)C(=O)N[C@@H](CCCNC(=N)N)C(=O)N[C@@H](CCN)C(=O)N[C@@H]([C@@H](C)O)C(=O)N[C@H](CCN)C(=O)N[C@@H]([C@@H](C)CC)C(=O)N[C@H](C(=O)N[C@@H](CCN)C(=O)N[C@@H](CCCNC(=N)N)C(=O)N[C@@H](Cc2ccc(O)cc2)C(=O)O)CSSC1(C)C [Example 90, Val-Pro((4R)NH2)-Ile-Ile-Tyr-Pen-Asn-Arg-Dab-Thr-^DDab-Ile-Cys-Dab-Arg-Tyr] (HELM PEPTIDE1{V.[N[C@@H]1C[C@@H](C(=O)[*:2])N([*:1])C1].I.I.Y.[Pen].N.R.[Dab].T.[NCC[C@@H](N[*:1])C(=O)[*:2]].I.C.[Dab].R.Y}$PEPTIDE1,PEPTIDE1,6:R3-13:R3$$$V2.0) | 0.125 | 0.25 | 0.0625 | <1
CC[C@H](C)[C@H](NC(=O)[C@@H](NC(=O)[C@@H]1C[C@@H](N)CN1C(=O)[C@@H](N)C(C)C)[C@@H](C)CC)C(=O)N[C@@H](Cc1ccc(O)cc1)C(=O)N[C@@H]1C(=O)N[C@@H](CC(N)=O)C(=O)N[C@@H](CCCNC(=N)N)C(=O)N[C@@H](CCN)C(=O)N[C@@H]([C@@H](C)O)C(=O)N[C@H](CCN)C(=O)N[C@@H](CCCNC(N)=O)C(=O)N[C@H](C(=O)N[C@@H](CCN)C(=O)N[C@@H](CCCNC(=N)N)C(=O)N[C@@H](Cc2ccc(O)cc2)C(=O)O)CSSC1(C)C [Example 91, Val-Pro((4R)NH2)-Ile-Ile-Tyr-Pen-Asn-Arg-Dab-Thr-^DDab-Cit-Cys-Dab-Arg-Tyr] (HELM PEPTIDE1{V.[N[C@@H]1C[C@@H](C(=O)[*:2])N([*:1])C1].I.I.Y.[Pen].N.R.[Dab].T.[NCC[C@@H](N[*:1])C(=O)[*:2]].[Cit].C.[Dab].R.Y}$PEPTIDE1,PEPTIDE1,6:R3-13:R3$$$V2.0) | 0.25 | 0.25 | 0.03125 | <1
